One assay deals with lung adenocarcinoma H596. The experiment in a line: Tumor cell growth / proliferation. Type of assay: cell-based. To be noted: Homo sapiens, NCI-H596; read-out: concentration causing about 50% inhibition of growth.
The subject of assay [1] is primary human skin FS4 fibroblasts. The experiment in a line: Growth of normal cells. It counts as cell-based. To be noted: Fibroblast, read-out: concentration needed to cause a significant inhibition of growth.
In a further assay the test system is lung adenocarcinoma H661. The experiment in a line: Tumor cell growth / proliferation. It counts as cell-based. To be noted: Homo sapiens, NCI-H661; read-out: concentration causing about 50% inhibition of growth.
The test system of a further assay is PC3 cells. The experiment in a line: Growth on matrigel / in vitro invasion. Type of assay: cell-based, human. To be noted: 800 µg/ml for 4 days, replated on matrigel, 8 days after plating. Here is the method: Pictures of controls, taken after 1 and 8 days (A and B, respectively), show the characteristic growth pattern of untreated cells, i.e., formation of net-like structures composed of actively replicating cells, which eventually degraded the matrigel and formed monolayers on the plastic surface beneath.
Results scored 6-24 hours later.
It is known that PC3 cells are invasive in vitro and metastatic in recipient athymic mice. [Albini, A. et al. A rapid in vitro assay for quantitating the invasive potential of tumor cells. Cancer Res. 47:3239-3245 (1987)]. The invasiveness of PC3 cells which is indicative of their malignant phenotype can be assessed by their ability to degrade and cross tissue barriers such as matrigel, a reconstituted basement membrane. […] In Fig. 7, pictures of controls taken after 1 and 8 days, A and B, respectively, shown the characteristic growth pattern of untreated cells, i.e., formation of net-like structures composed of actively replicating cells which eventually degraded the matrigel and formed monolayers on the plastic surface beneath. […] The formation of small noninvasive colonies on top of the matrigel is indicative of loss of malignant properties following treatment. Results of the in vitro invasion assays correlate highly with the biological behavior of cells in vivo.

On to `O=C([O-])Cc1ccccc1.[Na+]` [NaPA, sodium phenylacetate], for which the IC50 with lung adenocarcinoma H596 and with lung adenocarcinoma H661 was 400 to 800 µg/mL throughout. Moreover, the minimal effective concentration in assay [1] lay within 2000 to 4000 µg/mL. Moreover, the “degradation of the matrigel barrier” value in the assay with PC3 cells is given as “failed to degrade the matrigel barrier”.

The record behind these values is patent EP0567613B1, “COMPOSITIONS FOR THERAPY AND PREVENTION OF CANCER” (The Government of the United States of America, as …, priority 1991, dated 1993).
